In ChEMBL document CHEMBL4613209, “Quinolone hybrids and their anti-cancer activities: An overview” (Eur J Med Chem, 2019):
pIC50: −log10 of the molar value. Values after ≈ are worked out from the molar mass of the structure shown.

Key:
[1] = test system: A549; test: Antiproliferative activity against human A549 cells after 72 hrs by MTT assay; assay type: functional, cell-based; details: A549, 72 h
[2] = test system: HL-60; test: Antiproliferative activity against human HL60 cells after 72 hrs by MTT assay; assay type: functional, cell-based; details: HL-60, 72 h
[3] = test system: HeLa; test: Antiproliferative activity against human HeLa cells after 72 hrs by MTT assay; assay type: functional, cell-based
[4] = test system: HCT-116; test: Anticancer activity against human HCT116 cells after 48 hrs by SRB assay; assay type: functional, cell-based; details: HCT-116, 48 h
[5] = test system: HeLa; test: Anticancer activity against human HeLa cells after 48 hrs by SRB assay; assay type: functional, cell-based
[6] = test system: PANC-1; test: Potency index, ratio of IC50 for etoposide to IC50 for test compound for anticancer activity against human PANC1 cells after 48 hrs by SRB assay; assay type: functional
[7] = test system: HepG2; test: Anticancer activity against human HepG2 cells after 48 hrs by SRB assay; assay type: functional, cell-based; details: HepG2, 48 h
[8] = test system: MCF7-DOX; test: Potency index, ratio of IC50 for etoposide to IC50 for test compound for anticancer activity against human MCF7/Dox cells after 48 hrs by SRB assay; assay type: functional
[9] = test system: DU-145; test: Potency index, ratio of IC50 for etoposide to IC50 for test compound for anticancer activity against human DU145 cells after 48 hrs by SRB assay; assay type: functional
[10] = test system: MCF7; test: Anticancer activity against human MCF7 cells after 48 hrs by SRB assay; assay type: functional, cell-based; details: MCF7, 48 h
[11] = test system: A549; test: Anticancer activity against human A549 cells after 48 hrs by SRB assay; assay type: functional, cell-based; details: A549, 48 h
[12] = test system: HCT-116; test: Potency index, ratio of IC50 for etoposide to IC50 for test compound for anticancer activity against human HCT116 cells after 48 hrs by SRB assay; assay type: functional
[13] = test system: HeLa; test: Potency index, ratio of IC50 for etoposide to IC50 for test compound for anticancer activity against human HeLa cells after 48 hrs by SRB assay; assay type: functional
[14] = test system: DU-145; test: Anticancer activity against human DU145 cells after 48 hrs by SRB assay; assay type: functional, cell-based; details: DU-145, 48 h
[15] = test system: SK-OV-3; test: Anticancer activity against human SKOV3 cells after 48 hrs by SRB assay; assay type: functional, cell-based; details: SK-OV-3, 48 h
[16] = test system: MCF7-DOX; test: Anticancer activity against human MCF7/Dox cells after 48 hrs by SRB assay; assay type: functional, cell-based
[17] = test system: SK-OV-3; test: Potency index, ratio of IC50 for etoposide to IC50 for test compound for anticancer activity against human SKOV3 cells after 48 hrs by SRB assay; assay type: functional
[18] = test system: MCF7; test: Potency index, ratio of IC50 for etoposide to IC50 for test compound for anticancer activity against human MCF7 cells after 48 hrs by SRB assay; assay type: functional
[19] = test system: A549; test: Potency index, ratio of IC50 for etoposide to IC50 for test compound for anticancer activity against human A549 cells after 48 hrs by SRB assay; assay type: functional
[20] = test system: HL-60; test: Anticancer activity against human HL60 cells after 48 hrs by SRB assay; assay type: functional, cell-based; details: HL-60, 48 h
[21] = test system: HL-60; test: Potency index, ratio of IC50 for etoposide to IC50 for test compound for anticancer activity against human HL60 cells after 48 hrs by SRB assay; assay type: functional
[22] = test system: PANC-1; test: Anticancer activity against human PANC1 cells after 48 hrs by SRB assay; assay type: functional, cell-based; details: PANC-1, 48 h
[23] = test system: HeLa; test: Cytotoxicity against human HeLa cells assessed as reduction in cell viability after 48 hrs by MTT assay; assay type: functional, cell-based
[24] = Cytotoxicity against human MGC832 cells assessed as reduction in cell viability after 48 hrs by MTT assay; assay type: functional, cell-based
[25] = test system: CAPAN-1; test: Cytotoxicity against human Capan1 cells assessed as reduction in cell viability; assay type: functional, cell-based
[26] = Toxicity in mouse xenografted with human CX-1 cells; details: in vivo
[27] = test system: DU-145; test: Cytotoxicity against human DU145 cells assessed as reduction in cell viability after 48 hrs by SRB assay; assay type: functional, cell-based; details: DU-145, 48 h
[28] = test system: HL-60; test: Antiproliferative activity against human HL60 cells after 24 to 72 hrs by MTT assay; assay type: functional, cell-based
[29] = test system: Hep 3B2; test: Cytotoxicity against human Hep3B cells assessed as reduction in cell viability by MTT assay; assay type: functional, cell-based
[30] = test system: SMMC-7721; test: Cytotoxicity against human SMMC7721 cells assessed as reduction in cell viability; assay type: functional, cell-based
[31] = test system: PC-3; test: Cytotoxicity against human PC3 cells assessed as reduction in cell viability after 48 hrs by SRB assay; assay type: functional, cell-based; details: PC-3, 48 h
[32] = Cytotoxicity against human SW403 cells assessed as reduction in cell viability; assay type: functional; details: SW-403, read-out: TD50 (the source's name)
[33] = test system: L1210; test: Cytotoxicity against mouse L1210 cells assessed as reduction in cell viability; assay type: functional, cell-based
[34] = test system: Hep 3B2; test: Cytotoxicity against human Hep3B cells assessed as reduction in cell viability; assay type: functional, cell-based
[35] = test system: HCT-8; test: Antiproliferative activity against human HCT8 cells after 48 hrs by MTT assay; assay type: functional, cell-based; details: HCT-8, 48 h
[36] = test system: SMMC-7721; test: Antiproliferative activity against human SMMC7721 cells by MTT assay; assay type: functional, cell-based
[37] = test system: HCT-116; test: Cytotoxicity against human HCT116 cells assessed as reduction in cell viability by SRB assay; assay type: functional, cell-based
[38] = test system: L1210; test: Antiproliferative activity against mouse L1210 cells by MTT assay; assay type: functional, cell-based
[39] = Toxicity in mouse xenografted with human MB-9812 cells
[40] = test system: HL-60; test: Cytotoxicity against human HL60 cells assessed as reduction in cell viability by MTT assay; assay type: functional, cell-based
[41] = test system: L1210; test: Antiproliferative activity against mouse L1210 cells after 24 to 72 hrs by MTT assay; assay type: functional, cell-based
[42] = test system: SMMC-7721; test: Cytotoxicity against human SMMC7721 cells assessed as reduction in cell viability by MTT assay; assay type: functional, cell-based
[43] = test system: KB; test: Cytotoxicity against human KB cells assessed as reduction in cell viability; assay type: functional; details: read-out: TD50 (the source's name)
[44] = test system: CAPAN-1; test: Cytotoxicity against human Capan1 cells assessed as reduction in cell viability by MTT assay; assay type: functional, cell-based
[45] = test system: MCF7; test: Cytotoxicity against human MCF7 cells assessed as reduction in cell viability; assay type: functional, cell-based; details: read-out: TD50 (the source's name)
[46] = test system: SMMC-7721; test: Antiproliferative activity against human SMMC7721 cells after 24 to 72 hrs by MTT assay; assay type: functional, cell-based
[47] = test system: OVCAR-3; test: Cytotoxicity against human OVCAR3 cells assessed as reduction in cell viability; assay type: functional; details: read-out: TD50 (the source's name)
[48] = test system: L1210; test: Cytotoxicity against mouse L1210 cells assessed as reduction in cell viability by MTT assay; assay type: functional, cell-based
[49] = test system: HL-60; test: Cytotoxicity against human HL60 cells assessed as reduction in cell viability; assay type: functional, cell-based
[50] = test system: HepG2; test: Cytotoxicity against human HepG2 cells assessed as reduction in cell viability after 48 hrs by MTT assay; assay type: functional, cell-based; details: HepG2, 48 h

N=C(NS(=O)(=O)c1cccc(C(F)(F)F)c1)N1CCN(c2cc3c(cc2F)c(=O)c(C(=O)O)cn3-c2ccc(F)cc2F)CC1
pIC50 [1]: 7.55
pIC50 [2]: 7.74
pIC50 [3]: 8.00

CC1(CN)CN(c2ccc3c(=O)c(C(=O)O)cn(-c4nccs4)c3n2)C/C1=N/OCc1ccccc1 (stereo unspecified)
pIC50 [4]: 5.20 to 6.30
pIC50 [5]: 5.20 to 6.30
Ratio IC50 [6]: >=1.3 - 100
pIC50 [7]: 5.20 to 6.30
Ratio IC50 [8]: >=1.3 - 100
Ratio IC50 [9]: >=1.3 - 100
pIC50 [10]: 5.20 to 6.30
pIC50 [11]: 5.20 to 6.30
Ratio IC50 [12]: >=1.3 - 100
Ratio IC50 [13]: >=1.3 - 100
pIC50 [14]: 5.20 to 6.30
pIC50 [15]: 5.20 to 6.30
pIC50 [16]: 5.20 to 6.30
Ratio IC50 [17]: >=1.3 - 100
Ratio IC50 [18]: >=1.3 - 100
Ratio IC50 [19]: >=1.3 - 100
pIC50 [20]: 5.20 to 6.30
Ratio IC50 [21]: >=1.3 - 100
pIC50 [22]: 5.20 to 6.30

COC(=O)c1c(-c2ccc[nH]2)[nH]c2ccccc2c1=O
pIC50 [23]: 6.96
pIC50 [24]: 7.89

COc1cccc2c1C(=O)c1c(O)c3c(c(O)c1C2=O)C[C@@](O)(C(=O)CO)C[C@@H]3O[C@H]1C[C@H](N)[C@H](O)[C@H](C)O1 [DOXORUBICIN]
pIC50 [25]: 5.77
LD50 [26]: 11 mg/kg
IC50 [27]: 0.4 µg/mL (≈ 0.736 µM)
pIC50 [28]: 5.44
pIC50 [29]: 5.46 to 5.74
pIC50 [30]: 5.52 to 5.80
IC50 [31]: 0.4 µg/mL (≈ 0.736 µM)
CC50 [32]: 0.014 to 0.098 µg/mL (≈ 0.0258 to 0.18 µM)
pIC50 [33]: 5.52 to 5.80
pIC50 [34]: 5.59
pIC50 [35]: 5.14
pIC50 [36]: 5.64
pIC50 [37]: 8.06
pIC50 [38]: 5.38
LD50 [39]: 11 mg/kg
pIC50 [40]: 5.59 to 5.92
pIC50 [41]: 5.77
pIC50 [42]: 5.59 to 5.92
CC50 [43]: 0.014 to 0.098 µg/mL (≈ 0.0258 to 0.18 µM)
pIC50 [44]: 5.46 to 5.74
CC50 [45]: 0.014 to 0.098 µg/mL (≈ 0.0258 to 0.18 µM)
pIC50 [46]: 5.60
CC50 [47]: 0.014 to 0.098 µg/mL (≈ 0.0258 to 0.18 µM)
pIC50 [48]: 5.59 to 5.92
pIC50 [49]: 5.46

O=C(O)c1c(-c2ccc[nH]2)[nH]c2ccccc2c1=O [PENICINOLINE]
pIC50 [50]: 8.15
pIC50 [24]: 7.04
